Experiments:
Type in all cases: cell-based, human
[1] = tested on: PC-3; experiment: NCI 60 panel growth inhibition (SRB), prostate cancer; conditions: PC-3, 10 μM
How it was run: (§1)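 Human tumour lines were plated according to doubling time and exposed to five-point dilution series, 10-fold or half-log, of each compound. SRB-based growth percentages used time-zero and control absorbances as references.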

[2] = tested on: DU-145; experiment: as above; conditions: DU-145, 10 μM
How it was run: as §1

[3] = tested on: SK-MEL-28; experiment: NCI 60 panel growth inhibition (SRB), melanoma; conditions: SK-MEL-28, 10 μM
How it was run: as §1

[4] = tested on: MDA-MB-435; experiment: NCI 60 panel growth inhibition (SRB), melanoma; conditions: MDA-MB-435, 10 μM
How it was run: as §1

[5] = tested on: MALME-3M; experiment: NCI 60 panel growth inhibition (SRB), melanoma; conditions: 10 μM
How it was run: as §1

[6] = tested on: SK-MEL-5; experiment: NCI 60 panel growth inhibition (SRB), melanoma; conditions: SK-MEL-5, 10 μM
How it was run: as §1

[7] = tested on: UACC-62; experiment: NCI 60 panel growth inhibition (SRB), melanoma; conditions: UACC-62, 10 μM
How it was run: as §1

[8] = tested on: M14; experiment: NCI 60 panel growth inhibition (SRB), melanoma; conditions: M14, 10 μM
How it was run: as §1

[9] = tested on: UACC-257; experiment: NCI 60 panel growth inhibition (SRB), melanoma; conditions: UACC-257, 10 μM
How it was run: as §1

[10] = tested on: LOX IMVI; experiment: NCI 60 panel growth inhibition (SRB), melanoma; conditions: 10 μM
How it was run: as §1

[11] = tested on: A498; experiment: NCI 60 panel growth inhibition (SRB), renal cancer; conditions: A498, 10 μM
How it was run: as §1

[12] = tested on: SN12C; experiment: NCI 60 panel growth inhibition (SRB), renal cancer; conditions: 10 μM
How it was run: as §1

[13] = tested on: ACHN; experiment: NCI 60 panel growth inhibition (SRB), renal cancer; conditions: 10 μM
How it was run: as §1

[14] = tested on: CAKI-1; experiment: NCI 60 panel growth inhibition (SRB), renal cancer; conditions: CAKI-1, 10 μM
How it was run: as §1

[15] = tested on: MCF7; experiment: NCI 60 panel growth inhibition (SRB), breast cancer; conditions: MCF7, 10 μM
How it was run: as §1

[16] = tested on: MDA-MB-468; experiment: as above; conditions: MDA-MB-468, 10 μM
How it was run: as §1

[17] = tested on: T-47D; experiment: as above; conditions: 10 μM
How it was run: as §1

[18] = tested on: MDA-MB-231/ATCC; experiment: as above; conditions: 10 μM
How it was run: as §1

[19] = tested on: HS 578T; experiment: as above; conditions: 10 μM
How it was run: as §1

[20] = tested on: BT-549; experiment: as above; conditions: BT-549, 10 μM
How it was run: as §1

[21] = tested on: HCT-116; experiment: NCI 60 panel growth inhibition (SRB), colon cancer; conditions: HCT-116, 10 μM
How it was run: as §1

[22] = tested on: SW-620; experiment: NCI 60 panel growth inhibition (SRB), colon cancer; conditions: SW-620, 10 μM
How it was run: as §1

[23] = tested on: COLO 205; experiment: NCI 60 panel growth inhibition (SRB), colon cancer; conditions: COLO 205, 10 μM
How it was run: as §1

[24] = tested on: KM12; experiment: NCI 60 panel growth inhibition (SRB), colon cancer; conditions: KM12, 10 μM
How it was run: as §1

[25] = tested on: HCT-15; experiment: NCI 60 panel growth inhibition (SRB), colon cancer; conditions: HCT-15, 10 μM
How it was run: as §1

[26] = tested on: HCC-2998; experiment: NCI 60 panel growth inhibition (SRB), colon cancer; conditions: HCC-2998, 10 μM
How it was run: as §1

[27] = tested on: NCI-H460; experiment: NCI 60 panel growth inhibition (SRB), non-small cell lung cancer; conditions: NCI-H460, 10 μM
How it was run: as §1

[28] = tested on: NCI-H23; experiment: as above; conditions: NCI-H23, 10 μM
How it was run: as §1

[29] = tested on: NCI-H226; experiment: as above; conditions: NCI-H226, 10 μM
How it was run: as §1

[30] = tested on: EKVX; experiment: as above; conditions: 10 μM
How it was run: as §1

[31] = tested on: NCI-H522; experiment: as above; conditions: NCI-H522, 10 μM
How it was run: as §1

[32] = tested on: HOP-62; experiment: as above; conditions: HOP-62, 10 μM
How it was run: as §1

[33] = tested on: A549/ATCC; experiment: as above; conditions: 10 μM
How it was run: as §1

[34] = tested on: NCI-H322M; experiment: as above; conditions: 10 μM
How it was run: as §1

[35] = tested on: HOP-92; experiment: as above; conditions: HOP-92, 10 μM
How it was run: as §1

Cc1ccc2c(c1)C(=NNC(=O)COc1ccccc1-c1nc3ccccc3s1)C(=O)N2 [Compound 9b, 2-(2-(Benzo[d]thiazol-2-yl)phenoxy)-N′-(5-methyl-2-oxoindolin-3-ylidene)acetohydrazide]
GI% [1]: 22.82% | GI% [2]: 22.75% | GI% [3]: – (GI% < 5%) | GI% [4]: 17.86% | GI% [5]: 57.82% | GI% [6]: 62.70% | GI% [7]: 33.71% | GI% [8]: 11.64% | GI% [9]: – (GI% < 5%) | GI% [10]: 84.01% | GI% [11]: 5.48% | GI% [12]: 61.93% | GI% [13]: 52.92% | GI% [14]: 41.90% | GI% [15]: 64.25% | GI% [16]: 90.93% | GI% [17]: 48.54% | GI% [18]: 63.76% | GI% [19]: 58.35% | GI% [20]: 50.79% | GI% [21]: 53.56% | GI% [22]: – (GI% < 5%) | GI% [23]: – (GI% < 5%) | GI% [24]: 18.69% | GI% [25]: 31.29% | GI% [26]: 19.53% | GI% [27]: 34.24% | GI% [28]: 85.13% | GI% [29]: 105.34% | GI% [30]: 24.46% | GI% [31]: 37.21% | GI% [32]: 51.18% | GI% [33]: 28.01% | GI% [34]: 19.44% | GI% [35]: 35.86%

COc1cccc(-c2nc3ccccc3s2)c1OCC(=O)NN=C1C(=O)Nc2ccccc21 [Compound 9g, 2-(2-(Benzo[d]thiazol-2-yl)-6-methoxyphenoxy)-N′-(2-oxoindolin-3-ylidene)acetohydrazide]
GI% [1]: 44.41% | GI% [2]: – (GI% < 5%) | GI% [3]: – (GI% < 5%) | GI% [4]: 10.97% | GI% [5]: 13.82% | GI% [6]: 95.02% | GI% [7]: 46.29% | GI% [8]: – (GI% < 5%) | GI% [9]: – (GI% < 5%) | GI% [10]: 25.54% | GI% [11]: – (GI% < 5%) | GI% [12]: 18.49% | GI% [13]: 14.78% | GI% [14]: 34.75% | GI% [15]: 26.62% | GI% [16]: 50.47% | GI% [17]: 29.32% | GI% [18]: 18.32% | GI% [19]: 16.30% | GI% [20]: 25.83% | GI% [21]: 20.48% | GI% [22]: – (GI% < 5%) | GI% [23]: 25.08% | GI% [24]: 8.64% | GI% [25]: 25.54% | GI% [26]: – (GI% < 5%) | GI% [27]: – (GI% < 5%) | GI% [28]: 25.24% | GI% [29]: 45.16% | GI% [30]: 29.56% | GI% [31]: 33.32% | GI% [32]: – (GI% < 5%) | GI% [33]: 16.44% | GI% [34]: 10.24% | GI% [35]: 34.60%

Reference: article PMC11396129, “Oxindole–benzothiazole hybrids as CDK2 inhibitors and anticancer agents: design, synthesis and biological evaluation” (BMC Chemistry, 2024)
